{
  "source": "patent US9580432B2",
  "about": "“Fused pyrimidine compound or salt thereof” (TAIHO PHARMACEUTICAL CO., LTD., priority 2013, dated 2017)",
  "key": {"[1]": {"molecular_target": "purified recombinant human BTK protein (Homo sapiens (Human), UniProt Q06187)", "sequence (Q06187 whole entry)": "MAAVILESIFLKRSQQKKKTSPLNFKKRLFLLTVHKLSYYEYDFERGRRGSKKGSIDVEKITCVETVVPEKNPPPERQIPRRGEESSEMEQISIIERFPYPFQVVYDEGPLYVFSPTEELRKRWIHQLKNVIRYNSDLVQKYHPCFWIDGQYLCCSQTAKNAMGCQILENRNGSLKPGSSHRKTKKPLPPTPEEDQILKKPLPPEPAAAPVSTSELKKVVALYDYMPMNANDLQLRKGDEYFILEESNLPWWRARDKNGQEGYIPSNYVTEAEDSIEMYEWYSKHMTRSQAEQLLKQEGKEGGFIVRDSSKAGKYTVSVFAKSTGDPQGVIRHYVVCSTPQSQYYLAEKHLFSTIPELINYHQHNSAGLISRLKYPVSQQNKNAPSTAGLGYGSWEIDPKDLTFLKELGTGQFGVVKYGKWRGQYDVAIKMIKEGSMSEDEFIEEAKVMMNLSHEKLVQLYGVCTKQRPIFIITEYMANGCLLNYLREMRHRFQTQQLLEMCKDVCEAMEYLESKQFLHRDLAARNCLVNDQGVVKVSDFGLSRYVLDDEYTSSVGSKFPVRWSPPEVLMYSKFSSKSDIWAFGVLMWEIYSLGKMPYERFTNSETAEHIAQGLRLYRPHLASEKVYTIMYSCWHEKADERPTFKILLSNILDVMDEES", "experiment": "Measurement of BTK inhibitory activity (in vitro)", "assay_type": "biochemical", "details": "FL-PEPTIDE 2 substrate 1 μM, ATP 45 μM, 40 minutes at 25° C.", "procedure,_shortened": "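Recombinant human BTK with FL-PEPTIDE 2 substrate (1 μM), 45 μM ATP and 10 mM MgCl2 in 20 mM HEPES pH 7.5, 2 mM DTT, 0.01% Triton X-100, 5% DMSO; 40 min at 25° C. Reaction stopped with 30 mM EDTA. Phosphorylated and unphosphorylated peptide separated and detected by microchannel capillary electrophoresis.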"}, "[2]": {"tested_on": "purified recombinant human EGFR protein / BTK", "experiment": "BTK inhibition selectivity compared with EGFR kinase inhibitory activity (in vitro)", "assay_type": "biochemical", "details": "EGFR assay ATP 1.5 μM"}, "A431 cells / TMD8 cells": {"tested_on": "A431 cells / TMD8 cells", "experiment": "Proliferation inhibitory activity against cell lines expressing BTK and EGFR (in vitro), comparison of selectivity", "assay_type": "cell-based, human", "details": "ratio from GI50 (nM), 3 days culture, CELLTITER GLO", "procedure,_shortened": "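BTK-expressing TMD8 DLBCL cells (RPMI1640/10% FBS) and EGFR-overexpressing A431 epidermoid carcinoma cells (DMEM/10% FBS) cultured 1 day, then exposed to compound (0.2% DMSO final) for 3 days at 37° C. Luminescence read-out; inhibition ratio % = (C−T)/(C−C0)×100, with A431/TMD8 ratio as selectivity index.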"}},
  "data": [
    {"molecule": "C=CC(=O)N1CC[C@@H](n2nc(C(=O)Nc3nc4cc(C#N)ccc4o3)c3c(N)ncnc32)C1", "note": "[Example 39, (R)-1-(1-acryloylpyrrolidin-3-yl)-4-amino-N-(5-cyanobenzo[d]oxazol-2-yl)-1H-pyrazolo[3,4-d]pyrimidine-3-carboxamide]", "values": [
      {"measurement": "IC50", "setting": "[1]", "value": 1.12, "unit": "nM"},
      {"measurement": "EGFR inhibitory activity IC50 value (nM)/BTK inhibitory activity IC50 value (nM)", "setting": "[2]", "value": 37.5},
      {"measurement": "A431 cell proliferation inhibition ratio/TMD8 cell proliferation inhibitio ratio", "setting": "A431 cells / TMD8 cells", "value": ">3510.0"}
    ]},
    {"molecule": "C=CC(=O)N1CC[C@@H](n2nc(C(=O)Nc3nc4cc(CCOC)ccc4o3)c3c(N)ncnc32)C1", "note": "[Example 40, (R)-1-(1-acryloylpyrrolidin-3-yl)-4-amino-N-(5-(2-methoxyethyl)benzo[d]oxazol-2-yl)-1H-pyrazolo[3,4-d]pyrimidine-3-carboxamide]", "values": [
      {"measurement": "IC50", "setting": "[1]", "value": 2.09, "unit": "nM"},
      {"measurement": "EGFR inhibitory activity IC50 value (nM)/BTK inhibitory activity IC50 value (nM)", "setting": "[2]", "value": 10.0},
      {"measurement": "A431 cell proliferation inhibition ratio/TMD8 cell proliferation inhibitio ratio", "setting": "A431 cells / TMD8 cells", "value": ">3159.6"}
    ]},
    {"molecule": "CN(C)C/C=C/C(=O)N1CC[C@@H](n2nc(C(=O)Nc3nc4cc(-c5ccccc5)ccc4o3)c3c(N)ncnc32)C1", "note": "[Example 42, (R,E)-4-amino-N-(5-phenylbenzo[d]oxazol-2-yl)-1-(1-(4-(dimethylamino)but-2-enoyl)pyrrolidin-3-yl)-1H-pyrazolo[3,4-d]pyrimidine-3-carboxamide]", "values": [
      {"measurement": "IC50", "setting": "[1]", "value": 0.771, "unit": "nM"},
      {"measurement": "EGFR inhibitory activity IC50 value (nM)/BTK inhibitory activity IC50 value (nM)", "setting": "[2]", "value": 19.4},
      {"measurement": "A431 cell proliferation inhibition ratio/TMD8 cell proliferation inhibitio ratio", "setting": "A431 cells / TMD8 cells", "value": 3934.1}
    ]},
    {"molecule": "CN(C)C/C=C/C(=O)N1CC[C@@H](n2nc(C(=O)Nc3nc4cc(C(F)(F)F)ccc4o3)c3c(N)ncnc32)C1", "note": "[Example 44, (R,E)-4-amino-N-(5-(trifluoromethyl)benzo[d]oxazol-2-yl)-1-(1-(4-(dimethylamino)but-2-enoyl)pyrrolidin-3-yl)-1H-pyrazolo[3,4-d]pyrimidine-3-carboxamide]", "values": [
      {"measurement": "IC50", "setting": "[1]", "value": 0.877, "unit": "nM"},
      {"measurement": "EGFR inhibitory activity IC50 value (nM)/BTK inhibitory activity IC50 value (nM)", "setting": "[2]", "value": 17.1},
      {"measurement": "A431 cell proliferation inhibition ratio/TMD8 cell proliferation inhibitio ratio", "setting": "A431 cells / TMD8 cells", "value": 10905.1}
    ]},
    {"molecule": "CN(C)C/C=C/C(=O)N1CC[C@@H](n2cc(C(=O)Nc3nc4cc(Cl)ccc4o3)c3c(N)ncnc32)C1", "note": "[Example 49, (R,E)-4-amino-N-(5-chlorobenzo[d]oxazol-2-yl)-7-(1-(4-(dimethylamino)but-2-enoyl)pyrrolidin-3-yl) 7H-pyrrolo[2,3-d]pyrimidine-5-carboxamide]", "values": [
      {"measurement": "IC50", "setting": "[1]", "value": 1.53, "unit": "nM"},
      {"measurement": "EGFR inhibitory activity IC50 value (nM)/BTK inhibitory activity IC50 value (nM)", "setting": "[2]", "value": 24.8},
      {"measurement": "A431 cell proliferation inhibition ratio/TMD8 cell proliferation inhibitio ratio", "setting": "A431 cells / TMD8 cells", "value": ">3260.5"}
    ]},
    {"molecule": "CCN(C)C/C=C/C(=O)N1CC[C@@H](n2cc(C(=O)Nc3nc4cc(Cl)ccc4o3)c3c(N)ncnc32)C1", "note": "[Example 50, (R,E)-4-amino-N-(5-chlorobenzo[d]oxazol-2-yl)-7-(1-(4-(ethyl(methyl)amino)but-2-enoyl)pyrrolidin-3-yl) 7H-pyrrolo[2,3-d]pyrimidine-5-carboxamide]", "values": [
      {"measurement": "IC50", "setting": "[1]", "value": 1.41, "unit": "nM"},
      {"measurement": "EGFR inhibitory activity IC50 value (nM)/BTK inhibitory activity IC50 value (nM)", "setting": "[2]", "value": 22.1},
      {"measurement": "A431 cell proliferation inhibition ratio/TMD8 cell proliferation inhibitio ratio", "setting": "A431 cells / TMD8 cells", "value": ">2767.8"}
    ]},
    {"molecule": "CCN(CC)C/C=C/C(=O)N1CC[C@@H](n2cc(C(=O)Nc3nc4cc(Cl)ccc4o3)c3c(N)ncnc32)C1", "note": "[Example 51, (R,E)-4-amino-N-(5-chlorobenzo[d]oxazol-2-yl)-7-(1-(4-(diethylamino)but-2-enoyl)pyrrolidin-3-yl) 7H-pyrrolo[2,3-d]pyrimidine-5-carboxamide]", "values": [
      {"measurement": "IC50", "setting": "[1]", "value": 1.48, "unit": "nM"},
      {"measurement": "EGFR inhibitory activity IC50 value (nM)/BTK inhibitory activity IC50 value (nM)", "setting": "[2]", "value": 31.1},
      {"measurement": "A431 cell proliferation inhibition ratio/TMD8 cell proliferation inhibitio ratio", "setting": "A431 cells / TMD8 cells", "value": ">2044.6"}
    ]},
    {"molecule": "CC(C)N(C)C/C=C/C(=O)N1CC[C@@H](n2cc(C(=O)Nc3nc4cc(Cl)ccc4o3)c3c(N)ncnc32)C1", "note": "[Example 52, (R,E)-4-amino-N-(5-chlorobenzo[d]oxazol-2-yl)-7-(1-(4-(isopropyl(methyl)amino)but-2-enoyl)pyrrolidin-3-yl) 7H-pyrrolo[2,3-d]pyrimidine-5-carboxamide]", "values": [
      {"measurement": "IC50", "setting": "[1]", "value": 1.2, "unit": "nM"},
      {"measurement": "EGFR inhibitory activity IC50 value (nM)/BTK inhibitory activity IC50 value (nM)", "setting": "[2]", "value": 20.6},
      {"measurement": "A431 cell proliferation inhibition ratio/TMD8 cell proliferation inhibitio ratio", "setting": "A431 cells / TMD8 cells", "value": ">3617.9"}
    ]}
  ]
}
